Source: PubChem BioAssay AID1963437 (Molecular Pharmacology Branch, DTP, NCI, 2024)

Test system: OVCAR-8 complex spheroid, growth inhibition
Test: Anticancer human tumor OVCAR-8 cell line growth inhibition [Asc];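 further: spheroids exposed to agents for 7 days before readout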;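 on viability, T/C: percent viability relative to DMSO vehicle wells taken as 100%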
Conditions: for IC50: curve of first compound; for viability, T/C: stronger effect = lower value
Outline: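 Complex solid-tumor spheroids incorporating human endothelial and mesenchymal stem cells received single agents or combinations over half-log dilution ranges anchored to clinical Cmax.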

Q: For `NC1CCC(NC2CC2c2ccccc2)CC1` (configuration not stated) + CCN1C(C(=O)NC23CCC(C(=O)O)(CC2)CC3)C(c2cccc(Cl)c2F)C2(C(=O)Nc3cc(Cl)ccc32)C12CCCCC2, which IC50 (second compound 0.00949 µM) is on record?
A: > 100 nM

Q: What about the IC50 (second compound 0.03 µM) of the same compound?
A: > 100 nM

Q: What about the IC50 (second compound 0.0949 µM) of the same compound?
A: > 100 nM

Q: What about the IC50 (second compound 0.3 µM) of the same compound?
A: > 100 nM

Q: And the IC50 (second compound 0.949 µM)?
A: > 100 nM

Q: What about the IC50 (second compound 3 µM) of the same compound?
A: > 100 nM

Q: And the viability, T/C (second compound 0.00949 µM, first compound 0.000316 µM)?
A: 81.2%

Q: What about the viability, T/C (second compound 0.00949 µM, first compound 0.001 µM) of the same compound?
A: 113%

Q: And the viability, T/C (second compound 0.00949 µM, first compound 0.00316 µM)?
A: 91.4%

Q: What about the viability, T/C (second compound 0.00949 µM, first compound 0.01 µM) of the same compound?
A: 109%

Q: What about the viability, T/C (second compound 0.00949 µM, first compound 0.0316 µM) of the same compound?
A: 84.8%

Q: And the viability, T/C (second compound 0.00949 µM, first compound 0.1 µM)?
A: 90.7%

Q: And the viability, T/C (second compound 0.03 µM, first compound 0.000316 µM)?
A: 93.7%

Q: And the viability, T/C (second compound 0.03 µM, first compound 0.001 µM)?
A: 90.2%

Q: What about the viability, T/C (second compound 0.03 µM, first compound 0.00316 µM) of the same compound?
A: 96.5%

Q: And the viability, T/C (second compound 0.03 µM, first compound 0.01 µM)?
A: 93.8%

Q: What about the viability, T/C (second compound 0.03 µM, first compound 0.0316 µM) of the same compound?
A: 98.5%

Q: And the viability, T/C (second compound 0.03 µM, first compound 0.1 µM)?
A: 101%

Q: And the viability, T/C (second compound 0.0949 µM, first compound 0.000316 µM)?
A: 95.4%

Q: And the viability, T/C (second compound 0.0949 µM, first compound 0.001 µM)?
A: 99.5%

Q: And the viability, T/C (second compound 0.0949 µM, first compound 0.00316 µM)?
A: 90.2%

Q: And the viability, T/C (second compound 0.0949 µM, first compound 0.01 µM)?
A: 96.5%

Q: And the viability, T/C (second compound 0.0949 µM, first compound 0.0316 µM)?
A: 98.5%

Q: What about the viability, T/C (second compound 0.0949 µM, first compound 0.1 µM) of the same compound?
A: 90.3%

Q: What about the viability, T/C (second compound 0.3 µM, first compound 0.000316 µM) of the same compound?
A: 98.9%

Q: What about the viability, T/C (second compound 0.3 µM, first compound 0.001 µM) of the same compound?
A: 108%

Q: What about the viability, T/C (second compound 0.3 µM, first compound 0.00316 µM) of the same compound?
A: 109%

Q: And the viability, T/C (second compound 0.3 µM, first compound 0.01 µM)?
A: 110%

Q: What about the viability, T/C (second compound 0.3 µM, first compound 0.0316 µM) of the same compound?
A: 91.1%

Q: And the viability, T/C (second compound 0.3 µM, first compound 0.1 µM)?
A: 103%

Q: And the viability, T/C (second compound 0.949 µM, first compound 0.000316 µM)?
A: 89.2%

Q: What about the viability, T/C (second compound 0.949 µM, first compound 0.001 µM) of the same compound?
A: 109%

Q: And the viability, T/C (second compound 0.949 µM, first compound 0.00316 µM)?
A: 88%

Q: What about the viability, T/C (second compound 0.949 µM, first compound 0.01 µM) of the same compound?
A: 105%

Q: And the viability, T/C (second compound 0.949 µM, first compound 0.0316 µM)?
A: 106%

Q: What about the viability, T/C (second compound 0.949 µM, first compound 0.1 µM) of the same compound?
A: 97.4%

Q: And the viability, T/C (second compound 3 µM, first compound 0.000316 µM)?
A: 113%

Q: And the viability, T/C (second compound 3 µM, first compound 0.001 µM)?
A: 98.2%

Q: What about the viability, T/C (second compound 3 µM, first compound 0.00316 µM) of the same compound?
A: 107%

Q: What about the viability, T/C (second compound 3 µM, first compound 0.01 µM) of the same compound?
A: 110%

Q: And the viability, T/C (second compound 3 µM, first compound 0.0316 µM)?
A: 119%

Q: And the viability, T/C (second compound 3 µM, first compound 0.1 µM)?
A: 109%
